According to patent publication US20110130397A1, “PYRROLINONE COMPOUNDS AS INHIBITORS OF BACTERIAL PEPTIDYL TRNA HYDROLASE AND USES THEREOF” (priority 2006, published 2011):

Experiment: not given
Conditions: not given

SMILES | melting point [°C]
Cc1ccc(C(=O)C2=C(O)C(=O)N(CCc3c[nH]c4ccccc34)C2c2ccc(Cl)cc2)o1 (centres unmarked) [Compound 595] | 165 to 166
Cc1ccc(C(=O)C2=C(O)C(=O)N(c3nc4ccc(Cl)cc4s3)C2c2ccc3c(c2)OCCO3)o1 (centres unmarked) [Compound 596] | 236 to 237
Cc1ccc(C(=O)C2=C(O)C(=O)N(c3nc4ccc(F)cc4s3)C2c2ccc3c(c2)OCCO3)o1 (centres unmarked) [Compound 597] | 236 to 237
Cc1ccc(C(=O)C2=C(O)C(=O)N(c3nc4c(Cl)cccc4s3)C2c2ccc3c(c2)OCCO3)o1 (centres unmarked) [Compound 598] | 251 to 252
Cc1ccc(C(=O)C2=C(O)C(=O)N(c3nc4ccc(Cl)cc4s3)C2c2ccc3ccccc3c2)o1 (centres unmarked) [Compound 599] | 255 to 257
Cc1ccc(C(=O)C2=C(O)C(=O)N(c3nc4ccc(F)cc4s3)C2c2ccc3ccccc3c2)o1 (centres unmarked) [Compound 600] | 254 to 256
Cc1ccc(C(=O)C2=C(O)C(=O)N(c3nc4c(Cl)cccc4s3)C2c2ccc3ccccc3c2)o1 (centres unmarked) [Compound 601] | 261 to 262

Second part, the molecule after the results:

melting point [°C] | SMILES
229 to 230 | COc1cccc(C2C(C(=O)c3ccc(C)o3)=C(O)C(=O)N2c2nc3ccc(Cl)cc3s2)c1 (centres unmarked) [Compound 602]
201 to 202 | COc1cccc(C2C(C(=O)c3ccc(C)o3)=C(O)C(=O)N2c2nc3ccc(F)cc3s2)c1 (centres unmarked) [Compound 603]
255 to 256 | COc1cccc(C2C(C(=O)c3ccc(C)o3)=C(O)C(=O)N2c2nc3c(Cl)cccc3s2)c1 (centres unmarked) [Compound 604]
229 to 230 | COc1cc(C2C(C(=O)c3ccc(C)o3)=C(O)C(=O)N2c2nc3ccc(Cl)cc3s2)cc(OC)c1OC (centres unmarked) [Compound 605]
244 to 245 | COc1cc(C2C(C(=O)c3ccc(C)o3)=C(O)C(=O)N2c2nc3ccc(F)cc3s2)cc(OC)c1OC (centres unmarked) [Compound 606]
251 to 252 | COc1cc(C2C(C(=O)c3ccc(C)o3)=C(O)C(=O)N2c2nc3c(Cl)cccc3s2)cc(OC)c1OC (centres unmarked) [Compound 607]
235 to 236 | Cc1ccc(C(=O)C2=C(O)C(=O)N(c3nc4ccc(Cl)cc4s3)C2c2ccc(C)o2)o1 (centres unmarked) [Compound 608]
224 to 225 | Cc1ccc(C(=O)C2=C(O)C(=O)N(c3nc4c(Cl)cccc4s3)C2c2ccc(C)o2)o1 (centres unmarked) [Compound 610]
207 to 210 | CCN(CC)c1ccc(C2C(C(=O)c3ccc(C)o3)=C(O)C(=O)N2c2nc3ccc(Cl)cc3s2)cc1 (centres unmarked) [Compound 614]
209 to 212 | CCN(CC)c1ccc(C2C(C(=O)c3ccc(C)o3)=C(O)C(=O)N2c2nc3ccc(F)cc3s2)cc1 (centres unmarked) [Compound 615]
223 to 226 | CCN(CC)c1ccc(C2C(C(=O)c3ccc(C)o3)=C(O)C(=O)N2c2nc3c(Cl)cccc3s2)cc1 (centres unmarked) [Compound 616]
260 to 261 | Cc1ccc(C(=O)C2=C(O)C(=O)N(c3nc4ccc(Cl)cc4s3)C2c2cccc3ccccc23)o1 (centres unmarked) [Compound 617]
251 to 252 | Cc1ccc(C(=O)C2=C(O)C(=O)N(c3nc4ccc(F)cc4s3)C2c2cccc3ccccc23)o1 (centres unmarked) [Compound 618]
249 to 250 | Cc1ccc(C(=O)C2=C(O)C(=O)N(c3nc4c(Cl)cccc4s3)C2c2cccc3ccccc23)o1 (centres unmarked) [Compound 619]
259 to 260 | Cc1ccc(C(=O)C2=C(O)C(=O)N(c3nc4ccc(Cl)cc4s3)C2c2ccc(C#N)cc2)o1 (centres unmarked) [Compound 620]
255 to 256 | Cc1ccc(C(=O)C2=C(O)C(=O)N(c3nc4ccc(F)cc4s3)C2c2ccc(C#N)cc2)o1 (centres unmarked) [Compound 621]
273 to 274 | Cc1ccc(C(=O)C2=C(O)C(=O)N(c3nc4c(Cl)cccc4s3)C2c2ccc(C#N)cc2)o1 (centres unmarked) [Compound 622]
253 to 254 | Cc1ccc(C(=O)C2=C(O)C(=O)N(c3nc4ccc(Cl)cc4s3)C2c2cccc(F)c2F)o1 (centres unmarked) [Compound 623]
239 to 240 | Cc1ccc(C(=O)C2=C(O)C(=O)N(c3nc4ccc(F)cc4s3)C2c2cccc(F)c2F)o1 (centres unmarked) [Compound 624]
274 to 275 | Cc1ccc(C(=O)C2=C(O)C(=O)N(c3nc4c(Cl)cccc4s3)C2c2cccc(F)c2F)o1 (centres unmarked) [Compound 625]
254 to 256 | Cc1ccc(C(=O)C2=C(O)C(=O)N(c3nc4ccc(Cl)cc4s3)C2c2ccccc2C)o1 (centres unmarked) [Compound 626]
214 to 215 | Cc1ccc(C(=O)C2=C(O)C(=O)N(c3nc4ccc(F)cc4s3)C2c2ccccc2C)o1 (centres unmarked) [Compound 627]
244 to 245 | Cc1ccc(C(=O)C2=C(O)C(=O)N(c3nc4c(Cl)cccc4s3)C2c2ccccc2C)o1 (centres unmarked) [Compound 628]
268 to 272 | CC(=O)N1CCCC1C(=O)C1=C(O)C(=O)N(c2nc3ccc(Cl)cc3s2)C1c1ccc(F)cc1 (centres unmarked) [Compound 646, 4-(1-Acetylpyrrolidine-2-carbonyl)-1-(6-chlorobenzo[d]thiazol-2-yl)-5-(4-fluorophenyl)-3-hydroxy-1H-pyrrol-2(5H)-one]
148 to 152 | CC(=O)NC(CC(C)C)C(=O)C1=C(O)C(=O)N(c2nc3ccc(Cl)cc3s2)C1c1ccc(F)cc1 (centres unmarked) [Compound 647]
293 to 297 | CC(=O)N1CCCC1C(=O)C1=C(O)C(=O)N(c2nc3ccc(F)cc3s2)C1c1ccc(Cl)cc1 (centres unmarked) [Compound 648]
266 to 269 | CC(=O)NC(CC(C)C)C(=O)C1=C(O)C(=O)N(c2nc3ccc(F)cc3s2)C1c1ccc(Cl)cc1 (centres unmarked) [Compound 649]

Experiment: Cytotoxicity (CellTiter 96 Aqueous Non-Radioactive Cell Proliferation Assay)
Format: cell-based
Conditions: human, Huh7 cells
Protocol: Novel antibacterial peptidyl tRNA hydrolase inhibitors were identified using the MIC assay (inhibition ranged from 32-100%). The inhibitors were also bacteria specific, as evidenced by the low cytotoxicity observed for the human Huh7 cells (FIG. 4). Cytotoxicity was determined according to manufacturer's directions (CellTiter 96 Aqueous Non-Radioactive Cell Proliferation Assay, Promega).
Further data for representative compounds is set forth in Table 1 (MIC and cytotoxicity). Compounds were tested against S. aureus (ATCC 29213) and E. coli (BAS849—permeable) in the MIC assays. Certain compounds were also tested against other bacteria, including S. epidermis (ATCC 12228), E. faecium (ATCC 49624), and E. faecalis (ATCC 29212). Cytotoxicity was determined using Hu7 cells and Hep G2 cells. The MIC and cytotoxicity assays were performed as described above.

SMILES | CC50 [µM]
CCOc1cc(C2C(C(=O)c3cc4ccccc4o3)=C(O)C(=O)N2c2nnc(SCc3cccc4ccccc34)s2)ccc1O (centres unmarked) [Compound 2] | > 79
CCOc1cc(C2C(C(=O)c3cc4ccccc4o3)=C(O)C(=O)N2c2nnc(SCc3ccccc3F)s2)ccc1O (centres unmarked) [Compound 3] | > 83
CCOc1cc(C2C(C(=O)c3cc4ccccc4o3)=C(O)C(=O)N2c2nc3c(C)cc(C)cc3s2)ccc1O (centres unmarked) [Compound 4] | 53.4
CCOc1cc(C2C(C(=O)c3cc4ccccc4o3)=C(O)C(=O)N2c2nnc(SCc3ccccc3)s2)ccc1O (centres unmarked) [Compound 7] | > 85
Cc1ccc2nc(N3C(=O)C(O)=C(C(=O)c4cc5ccccc5o4)C3c3cccc(O)c3)sc2c1 (centres unmarked) [Compound 8] | 80.1
COc1cc(C2C(C(=O)c3cc4ccccc4o3)=C(O)C(=O)N2c2nnc(C)s2)ccc1OCc1ccccc1 (centres unmarked) [Compound 9] | > 90
COc1cc(C2C(C(=O)c3cc4ccccc4o3)=C(O)C(=O)N2c2nc(C)c(C(C)=O)s2)ccc1OCc1ccccc1 (centres unmarked) [Compound 11] | > 84
O=C(C1=C(O)C(=O)N(c2nnc(SCc3ccc(Cl)cc3)s2)C1c1cccc(O)c1)c1cc2ccccc2o1 (centres unmarked) [Compound 12] | > 87
CCOc1cc(C2C(C(=O)c3cc4ccccc4o3)=C(O)C(=O)N2c2nc(C)c(C(C)=O)s2)ccc1O (centres unmarked) [Compound 13] | 59.8
CCCCCOc1ccc(C2C(C(=O)c3cc4ccccc4o3)=C(O)C(=O)N2c2nc(C)c(C(C)=O)s2)cc1OC (centres unmarked) [Compound 14] | 74.2
O=C(C1=C(O)C(=O)N(c2nnc(SCc3ccc(F)cc3)s2)C1c1cccc(O)c1)c1cc2ccccc2o1 (centres unmarked) [Compound 15] | > 89
CC(=O)C1=C(O)C(=O)N(c2nccs2)C1c1ccccc1 (centres unmarked) [Compound 22] | 29.7
CCOC(=O)c1sc(N2C(=O)C(O)=C(C(=O)c3ccc(C)cc3)C2c2cccs2)nc1C (centres unmarked) [Compound 28] | 89.1
